From patent US20110237607A1, “SUBSTITUTED PURINYL-PYRAZOL DERIVATIVES AND THEIR USE AS POTASSIUM CHANNEL MODULATORS” (NEUROSEARCH A/S, priority 2008, published 2011) come the findings set out here.

This assay deals with T1, hSK3 channels (Homo sapiens, UniProt Q9UGI6).
T1 construct: expressed in transfected cells; host or cells: HEK293
In words: Whole-cell patch-clamp recording of SK3 current in HEK293 cells expressing hSK3 channels. Type of assay: cell-based. As for the experimental part:
The ionic current through small-conductance Ca^2+-activated K^+ channels (SK channels, subtype 3) is recorded using the whole-cell configuration of the patch-clamp technique in a classic patch-clamp set-up using HEK293 tissue culture cells expressing hSK3 channels as described in e.g. WO 2006/100212.
The SC100 value determined is defined as the Stimulating Concentration required for increasing the baseline current by 100%. The below SC100 values are an indication of the SK3 activating properties of the compounds of the invention.

Take `Cc1cc(C)n(-c2nc(NC3Cc4ccccc4C3)c3ncn(C)c3n2)n1` [Compound 5.1, [2-(3,5-Dimethyl-pyrazol-1-yl)-9-methyl-9H-purin-6-yl]-indan-2-yl-amine]: the “SC100 (Stimulating Concentration required for increasing the baseline current by 100%)” value came to 0.04 µM. The result for `Cc1ccn(-c2nc(NC3Cc4ccccc4C3)c3ncn(C)c3n2)n1` [Compound 5.2, Indan-2-yl-[9-methyl-2-(3-methyl-pyrazol-1-yl)-9H-purin-6-yl]-amine] reads 0.10 µM.
